For data set [1], the target named is T1, retinaldehyde dehydrogenase 1 (RALDH1) (Homo sapiens, UniProt P00352).
T1 sequence (P00352 1-501): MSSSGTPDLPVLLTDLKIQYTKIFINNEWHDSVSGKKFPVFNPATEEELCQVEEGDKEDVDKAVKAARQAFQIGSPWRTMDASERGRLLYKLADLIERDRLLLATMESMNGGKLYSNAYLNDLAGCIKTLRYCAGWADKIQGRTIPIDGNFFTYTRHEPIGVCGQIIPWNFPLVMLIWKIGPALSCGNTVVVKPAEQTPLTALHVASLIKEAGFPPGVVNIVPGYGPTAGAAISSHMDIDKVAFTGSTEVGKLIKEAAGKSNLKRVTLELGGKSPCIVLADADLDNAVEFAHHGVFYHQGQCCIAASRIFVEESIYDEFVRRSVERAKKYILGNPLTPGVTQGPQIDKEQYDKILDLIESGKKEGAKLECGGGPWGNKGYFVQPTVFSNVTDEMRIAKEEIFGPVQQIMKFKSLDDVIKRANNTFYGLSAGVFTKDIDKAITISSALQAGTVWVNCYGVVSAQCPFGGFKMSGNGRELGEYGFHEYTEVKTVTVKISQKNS
As to the kind of experiment: RALDH1 activity by NADH synthesis, fluorescence-based NADH sensor. In kind it is biochemical. The conditions noted are these: in the presence of DAR.

The target of data set [2] is T2, RALDH2 (Homo sapiens, UniProt O94788).
T2 sequence (O94788 1-518): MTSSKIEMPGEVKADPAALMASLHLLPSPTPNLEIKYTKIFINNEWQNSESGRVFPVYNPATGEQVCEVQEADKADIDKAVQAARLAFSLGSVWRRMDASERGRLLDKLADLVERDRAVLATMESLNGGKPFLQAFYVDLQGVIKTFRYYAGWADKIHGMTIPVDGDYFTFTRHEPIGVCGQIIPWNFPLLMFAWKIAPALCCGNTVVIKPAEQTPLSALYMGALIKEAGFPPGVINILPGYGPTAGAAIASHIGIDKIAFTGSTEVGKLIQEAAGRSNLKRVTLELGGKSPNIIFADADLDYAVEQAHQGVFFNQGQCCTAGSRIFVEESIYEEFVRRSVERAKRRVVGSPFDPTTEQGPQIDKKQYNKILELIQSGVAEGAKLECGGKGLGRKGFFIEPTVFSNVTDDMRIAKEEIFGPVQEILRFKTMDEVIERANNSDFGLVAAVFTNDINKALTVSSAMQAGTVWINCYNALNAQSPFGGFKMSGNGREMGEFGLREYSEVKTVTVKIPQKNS
Put plainly: RALDH2 activity by NADH synthesis, fluorescence-based NADH sensor. It counts as biochemical.

For data set [3], the target named is T3, RALDH3 (Homo sapiens, UniProt P47895).
T3 sequence (P47895 1-512): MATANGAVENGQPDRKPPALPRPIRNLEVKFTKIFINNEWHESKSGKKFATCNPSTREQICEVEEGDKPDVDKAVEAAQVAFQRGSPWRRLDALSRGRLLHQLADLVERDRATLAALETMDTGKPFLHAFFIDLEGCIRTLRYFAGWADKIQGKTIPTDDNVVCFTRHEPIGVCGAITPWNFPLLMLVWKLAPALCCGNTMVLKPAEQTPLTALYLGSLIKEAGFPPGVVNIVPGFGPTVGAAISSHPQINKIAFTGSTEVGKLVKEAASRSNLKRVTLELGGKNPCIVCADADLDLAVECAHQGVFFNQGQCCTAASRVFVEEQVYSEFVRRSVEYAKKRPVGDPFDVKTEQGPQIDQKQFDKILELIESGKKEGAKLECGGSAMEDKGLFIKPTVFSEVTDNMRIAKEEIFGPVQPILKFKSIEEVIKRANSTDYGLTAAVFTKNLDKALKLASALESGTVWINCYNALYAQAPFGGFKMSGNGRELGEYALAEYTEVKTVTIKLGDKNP
Put plainly: RALDH3 activity by NADH synthesis, fluorescence-based NADH sensor. In kind it is biochemical. The conditions noted are these: in the presence of DAR.

Data set [4] has as its target T4, aldehyde dehydrogenase 2 (ALDH2) (Homo sapiens, UniProt P05091).
T4 sequence (P05091 18-517): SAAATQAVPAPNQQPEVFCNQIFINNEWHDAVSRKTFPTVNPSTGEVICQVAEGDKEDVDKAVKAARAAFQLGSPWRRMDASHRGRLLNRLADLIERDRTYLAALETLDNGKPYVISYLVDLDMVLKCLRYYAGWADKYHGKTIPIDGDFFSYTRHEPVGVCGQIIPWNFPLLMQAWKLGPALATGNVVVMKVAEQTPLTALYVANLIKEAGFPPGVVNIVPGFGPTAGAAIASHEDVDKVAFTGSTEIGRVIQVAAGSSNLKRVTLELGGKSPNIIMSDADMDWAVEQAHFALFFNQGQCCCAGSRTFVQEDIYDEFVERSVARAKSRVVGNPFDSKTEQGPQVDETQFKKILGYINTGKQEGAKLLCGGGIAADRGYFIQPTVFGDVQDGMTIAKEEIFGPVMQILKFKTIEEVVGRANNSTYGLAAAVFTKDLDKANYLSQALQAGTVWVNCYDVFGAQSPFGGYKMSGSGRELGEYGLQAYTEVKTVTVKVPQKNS
Put plainly: ALDH2 activity by NADH synthesis, absorbance at 340 nm. It counts as biochemical.

Data set [5] concerns RALDH. As to the kind of experiment: RALDH activity in recovering choroid tissue homogenates, atRA synthesis by HPLC. It counts as biochemical. Particulars: choroid cytosol fractions, DAR 5-25 μM, NAD 4 mM, all-trans-retinaldehyde 25 μM, 37° C. 30 min. On the procedure: RALDH activity was assessed in choroid tissue homogenates in the presence of DAR (5-25 μM), or vehicle (EtOH) by measuring all-trans-retinoic acid (atRA) synthesis. Choroid cytosol fractions were incubated in the presence of cofactor NAD (4 mM) and all-trans-retinaldehyde (25 μM) at 37° C. for 30 min. Following incubation, retinoids were extracted and quantified using HPLC.

In data set [6] the test system is spermatogenesis. The conditions noted are these: cited from earlier work.

For `CC1=C(/C=C/C(C)=C/C=C/C(C)=C/C(=O)C(Cl)Cl)C(C)(C)CCC1` [DAR, (3E,5E,7E,9E)-1,1-dichloro-4,8-dimethyl-10-(2,6,6-trimethylcyclohex-1-en-1-yl)deca-3,5,7,9-tetraen-2-one], the “activity of RALDH1 assessed by NADH synthesis” value in data set [1] is reported as “effectively inhibits”. Moreover, the half-maximal inhibitory concentration (IC50) (in general, the concentration at which inhibition is half-maximal) in data set [2] (NADH synthesis, 95% C.I.=41.0-66.4 nM) stood at 52.2 nM. The “activity of RALDH2 assessed by NADH synthesis” value in data set [2] (in the presence of DAR, fluorescence-based NADH sensor) is “effectively inhibits”. Besides, in data set [3], the “activity of RALDH3 assessed by NADH synthesis” value is recorded as “effectively inhibits”. Further, the “effect on ALDH2 assessed by NADH synthesis” value in data set [4] is recorded as “does not significantly inhibit”. Further, in data set [5], the “retinoic acid (atRA) synthesis by RALDH” value is recorded as “significantly inhibited”.

As for `O=C(NCCCCCCCCNC(=O)C(Cl)Cl)C(Cl)Cl` [WIN-18446], the “effect on ALDH2 assessed by NADH synthesis” value in data set [4] is “non-specific ALDH2 inhibitor”. Besides, the inhibition of spermatogenesis entry in data set [6] (human males) was “potent, reversible inhibitor of spermatogenesis”. The “reactions in patients who consumed alcohol” value in data set [6] (human, alcohol consumed while taking compound, due to inhibition of ALDH2) was “violent “disulfiram” reactions”.

These data come from patent US10519108B2, “Inhibitors of retinaldehyde dehydrogenases and methods of use” (The Board of Regents of the University of Oklahoma, priority 2015, dated 2019).
